Where a name gives a salt, the structure may show the parent alone.

The target of one assay is T1, Mouse ER α-glucosidase I (Mus musculus, UniProt Q80UM7).
T1 construct: gene Mogs
T1 sequence (Q80UM7 1-834): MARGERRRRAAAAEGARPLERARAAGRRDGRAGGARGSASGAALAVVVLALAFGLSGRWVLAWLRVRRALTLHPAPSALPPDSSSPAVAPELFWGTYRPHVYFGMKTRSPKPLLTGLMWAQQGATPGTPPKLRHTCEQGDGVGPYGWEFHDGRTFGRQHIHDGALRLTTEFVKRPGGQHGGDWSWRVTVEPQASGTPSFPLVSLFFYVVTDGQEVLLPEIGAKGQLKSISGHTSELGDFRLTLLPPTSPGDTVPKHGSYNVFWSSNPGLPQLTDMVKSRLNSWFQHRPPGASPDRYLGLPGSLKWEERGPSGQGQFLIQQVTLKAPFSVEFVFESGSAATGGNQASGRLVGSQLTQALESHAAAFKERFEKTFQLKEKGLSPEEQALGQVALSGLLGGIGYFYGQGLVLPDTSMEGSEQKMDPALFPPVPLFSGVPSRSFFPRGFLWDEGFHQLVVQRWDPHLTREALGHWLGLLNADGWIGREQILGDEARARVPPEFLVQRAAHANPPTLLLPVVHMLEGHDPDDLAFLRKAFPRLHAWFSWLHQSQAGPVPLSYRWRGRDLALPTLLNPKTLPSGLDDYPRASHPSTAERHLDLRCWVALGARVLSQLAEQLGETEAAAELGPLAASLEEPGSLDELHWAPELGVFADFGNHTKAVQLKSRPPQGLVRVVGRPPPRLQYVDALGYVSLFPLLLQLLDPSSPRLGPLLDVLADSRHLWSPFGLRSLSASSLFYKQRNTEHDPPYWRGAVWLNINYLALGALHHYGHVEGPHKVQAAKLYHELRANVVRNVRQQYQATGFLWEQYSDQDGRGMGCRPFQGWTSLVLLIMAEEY
As to the kind of experiment: enzyme inhibition assay, purified enzyme. Type of assay: biochemical. As to conditions: read-out: IC50 ^a / UV-4B. From the text:
enzyme inhibition assay, purified enzyme on Mouse ER α-glucosidase I

Assay [1] addresses T2, Rat intestinal isomaltase (Rattus norvegicus, UniProt P23739).
T2 construct: gene Si; native rat intestinal enzyme; isomaltase (N-terminal) subunit of sucrase-isomaltase
Nature of the assay: enzyme inhibition assay. It is filed as biochemical. As to conditions: read-out: IC50 ^a / UV-4B. From the text: enzyme inhibition assay on Rat intestinal isomaltase

The next assay deals with T3, Rat intestinal maltase.
T3 construct: gene Mgam; native rat intestinal enzyme activity; maltase may be maltase-glucoamylase and/or sucrase-isomaltase
Nature of the assay: enzyme inhibition assay. It is filed as biochemical. As to conditions: read-out: IC50 ^a / UV-4B. From the text:
enzyme inhibition assay on Rat intestinal maltase

Assay [2] has as its target T4, α-glucosidase II (human MDMΦs) (Homo sapiens, UniProt Q14697).
T4 construct: gene GANAB; endogenous enzyme in primary human monocyte-derived macrophages; with Glucosidase 2 subunit beta
T4 sequence (Q14697 29-944): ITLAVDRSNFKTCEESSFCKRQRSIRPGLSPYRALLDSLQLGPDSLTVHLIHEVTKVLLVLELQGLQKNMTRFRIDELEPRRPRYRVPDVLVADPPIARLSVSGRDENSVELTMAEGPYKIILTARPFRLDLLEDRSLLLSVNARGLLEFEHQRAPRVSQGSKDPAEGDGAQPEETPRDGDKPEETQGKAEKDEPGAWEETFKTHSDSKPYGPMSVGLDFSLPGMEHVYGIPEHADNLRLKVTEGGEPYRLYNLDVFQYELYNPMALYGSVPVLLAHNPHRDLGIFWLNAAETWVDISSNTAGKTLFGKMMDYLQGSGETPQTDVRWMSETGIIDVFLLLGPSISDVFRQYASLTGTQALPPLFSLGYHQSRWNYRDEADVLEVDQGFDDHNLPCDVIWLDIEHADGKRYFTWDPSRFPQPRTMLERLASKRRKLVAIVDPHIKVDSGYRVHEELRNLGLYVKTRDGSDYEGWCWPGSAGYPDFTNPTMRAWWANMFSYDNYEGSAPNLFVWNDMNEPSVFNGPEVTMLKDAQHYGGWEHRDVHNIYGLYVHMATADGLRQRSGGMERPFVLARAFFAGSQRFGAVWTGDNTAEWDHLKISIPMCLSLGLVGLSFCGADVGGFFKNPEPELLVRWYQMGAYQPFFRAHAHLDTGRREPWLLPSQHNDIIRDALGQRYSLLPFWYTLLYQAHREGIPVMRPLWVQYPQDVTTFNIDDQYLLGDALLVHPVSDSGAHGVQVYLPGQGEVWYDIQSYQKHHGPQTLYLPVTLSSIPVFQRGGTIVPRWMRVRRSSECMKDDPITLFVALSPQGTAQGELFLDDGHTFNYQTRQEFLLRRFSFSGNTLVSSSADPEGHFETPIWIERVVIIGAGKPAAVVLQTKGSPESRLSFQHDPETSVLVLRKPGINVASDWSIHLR
T4 sequence (P14314 15-528 partner): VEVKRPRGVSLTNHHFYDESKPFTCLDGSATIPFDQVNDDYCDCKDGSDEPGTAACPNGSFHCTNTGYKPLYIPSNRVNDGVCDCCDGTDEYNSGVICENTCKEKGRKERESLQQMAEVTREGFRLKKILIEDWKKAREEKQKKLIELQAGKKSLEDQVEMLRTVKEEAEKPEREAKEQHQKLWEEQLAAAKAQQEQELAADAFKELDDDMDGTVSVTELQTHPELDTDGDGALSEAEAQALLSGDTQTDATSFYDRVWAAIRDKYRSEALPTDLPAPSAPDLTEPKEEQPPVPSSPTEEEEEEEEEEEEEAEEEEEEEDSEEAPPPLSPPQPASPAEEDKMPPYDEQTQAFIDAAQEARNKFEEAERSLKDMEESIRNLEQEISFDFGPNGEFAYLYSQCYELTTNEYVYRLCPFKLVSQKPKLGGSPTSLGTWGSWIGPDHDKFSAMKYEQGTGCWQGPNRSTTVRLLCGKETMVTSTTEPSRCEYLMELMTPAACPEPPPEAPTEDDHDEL
Nature of the assay: free oligosaccharide (Glc1Man4GlcNAc1) accumulation in human MDMΦs. Type of assay: cell-based. Particulars: […] h treatment of uninfected cells.

A further assay deals with T5, Rat intestinal sucrase (Rattus norvegicus, UniProt P23739).
T5 construct: gene Si; native rat intestinal enzyme; sucrase (C-terminal) subunit of sucrase-isomaltase
Nature of the assay: enzyme inhibition assay. Type of assay: biochemical. As to conditions: read-out: IC50 ^a / UV-4B. From the text: enzyme inhibition assay on Rat intestinal sucrase

T2 sequence (P23739 1-1013 limits assumed): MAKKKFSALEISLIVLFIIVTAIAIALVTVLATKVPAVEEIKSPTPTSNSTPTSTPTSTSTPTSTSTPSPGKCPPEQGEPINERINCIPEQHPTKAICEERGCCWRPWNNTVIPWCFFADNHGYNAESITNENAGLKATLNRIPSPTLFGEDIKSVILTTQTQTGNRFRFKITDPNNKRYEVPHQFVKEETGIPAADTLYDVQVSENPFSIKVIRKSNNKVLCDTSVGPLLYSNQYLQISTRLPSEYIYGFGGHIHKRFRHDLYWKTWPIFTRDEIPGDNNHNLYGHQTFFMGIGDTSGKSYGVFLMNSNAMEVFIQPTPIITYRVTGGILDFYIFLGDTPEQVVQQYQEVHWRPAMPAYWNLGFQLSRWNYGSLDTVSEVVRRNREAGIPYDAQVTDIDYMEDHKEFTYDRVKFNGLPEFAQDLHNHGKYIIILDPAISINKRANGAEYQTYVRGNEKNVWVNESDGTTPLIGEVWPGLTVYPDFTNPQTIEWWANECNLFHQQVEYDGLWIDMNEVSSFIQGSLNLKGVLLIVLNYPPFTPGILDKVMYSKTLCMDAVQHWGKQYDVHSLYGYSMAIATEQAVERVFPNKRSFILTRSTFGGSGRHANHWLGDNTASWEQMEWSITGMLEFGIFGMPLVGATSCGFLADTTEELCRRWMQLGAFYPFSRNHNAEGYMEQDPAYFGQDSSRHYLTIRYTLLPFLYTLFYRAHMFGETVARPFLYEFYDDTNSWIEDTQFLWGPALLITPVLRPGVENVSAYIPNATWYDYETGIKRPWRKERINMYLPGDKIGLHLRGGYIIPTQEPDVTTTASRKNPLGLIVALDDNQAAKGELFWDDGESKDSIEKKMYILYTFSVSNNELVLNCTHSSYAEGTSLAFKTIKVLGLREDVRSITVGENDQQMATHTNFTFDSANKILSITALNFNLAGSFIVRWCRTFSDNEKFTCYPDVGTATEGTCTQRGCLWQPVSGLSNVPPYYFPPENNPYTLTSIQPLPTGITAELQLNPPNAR
T5 sequence (P23739 1014-1841 limits assumed): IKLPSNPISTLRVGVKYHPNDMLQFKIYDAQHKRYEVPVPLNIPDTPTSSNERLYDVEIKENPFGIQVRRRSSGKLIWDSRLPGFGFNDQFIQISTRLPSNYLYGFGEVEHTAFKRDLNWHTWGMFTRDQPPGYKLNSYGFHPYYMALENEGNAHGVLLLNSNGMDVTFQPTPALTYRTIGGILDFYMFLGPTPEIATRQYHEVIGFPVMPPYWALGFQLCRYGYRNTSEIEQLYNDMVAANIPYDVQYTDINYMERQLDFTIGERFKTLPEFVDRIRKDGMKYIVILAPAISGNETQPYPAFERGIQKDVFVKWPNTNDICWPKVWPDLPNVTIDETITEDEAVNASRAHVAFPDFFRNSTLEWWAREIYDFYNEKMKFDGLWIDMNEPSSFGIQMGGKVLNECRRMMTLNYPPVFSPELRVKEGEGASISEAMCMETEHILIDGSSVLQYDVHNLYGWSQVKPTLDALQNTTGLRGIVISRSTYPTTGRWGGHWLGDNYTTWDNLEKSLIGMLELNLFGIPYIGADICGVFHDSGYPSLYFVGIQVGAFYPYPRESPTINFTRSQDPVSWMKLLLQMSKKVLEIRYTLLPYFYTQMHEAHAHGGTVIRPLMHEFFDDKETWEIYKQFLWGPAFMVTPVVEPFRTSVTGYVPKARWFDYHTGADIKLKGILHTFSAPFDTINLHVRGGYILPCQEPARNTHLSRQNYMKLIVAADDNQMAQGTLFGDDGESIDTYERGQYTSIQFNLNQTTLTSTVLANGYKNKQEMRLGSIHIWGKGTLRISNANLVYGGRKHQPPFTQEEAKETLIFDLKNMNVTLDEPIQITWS

With `COCCCCCCCCCN1C[C@H](O)[C@@H](O)[C@H](O)[C@H]1CO` [UV-4B, N-(9′-methoxynonyl)-1-deoxynojirimycin hydrochloride], the IC50 at Mouse ER α-glucosidase I was 160 nM; in assay [1], 1400 nM; at Rat intestinal maltase it was 280 nM; at Rat intestinal sucrase, 500 nM. Also, the “free oligosaccharide (Glc1Man4GlcNAc1) accumulation in human MDMΦs” value in assay [2] was “UV-4B led to accumulation of FOS representative of inhibition of both α-glucosidases”.

These data come from publication PMC5064435, “Inhibition of endoplasmic reticulum glucosidases is required for in vitro and in vivo dengue antiviral activity by the iminosugar UV-4” (Antiviral Research, 2016).
